Columns and labels:
[1] = target: T1, Endothelin-1 receptor (Homo sapiens, UniProt P25101)
T1 sequence (P25101 whole entry): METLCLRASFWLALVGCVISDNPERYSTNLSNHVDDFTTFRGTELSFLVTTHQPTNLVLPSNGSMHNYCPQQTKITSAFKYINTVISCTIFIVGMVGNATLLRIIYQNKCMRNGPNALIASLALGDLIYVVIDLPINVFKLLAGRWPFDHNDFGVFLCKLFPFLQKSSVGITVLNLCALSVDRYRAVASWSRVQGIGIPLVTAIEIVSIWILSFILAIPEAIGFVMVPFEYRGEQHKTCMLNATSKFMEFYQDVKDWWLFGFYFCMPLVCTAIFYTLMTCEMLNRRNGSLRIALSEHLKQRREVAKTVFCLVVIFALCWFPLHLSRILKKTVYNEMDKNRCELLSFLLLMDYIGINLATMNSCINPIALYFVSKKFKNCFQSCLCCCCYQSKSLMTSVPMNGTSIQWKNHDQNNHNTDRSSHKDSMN

[2] = target: T2, Endothelin receptor type B (Homo sapiens, UniProt P24530)
T2 sequence (P24530 whole entry): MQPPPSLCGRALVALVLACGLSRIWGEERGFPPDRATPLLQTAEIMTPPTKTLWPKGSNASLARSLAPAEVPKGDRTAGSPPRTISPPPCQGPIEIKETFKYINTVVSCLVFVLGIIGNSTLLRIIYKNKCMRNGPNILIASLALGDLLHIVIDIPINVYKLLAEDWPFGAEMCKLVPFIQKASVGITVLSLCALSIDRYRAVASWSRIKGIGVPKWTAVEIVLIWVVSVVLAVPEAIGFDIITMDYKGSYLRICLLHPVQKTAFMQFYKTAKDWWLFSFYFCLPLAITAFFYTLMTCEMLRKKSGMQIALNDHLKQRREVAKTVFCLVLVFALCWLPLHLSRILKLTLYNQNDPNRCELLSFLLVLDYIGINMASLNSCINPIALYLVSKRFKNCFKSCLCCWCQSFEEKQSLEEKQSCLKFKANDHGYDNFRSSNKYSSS

[3] = target: T3, Muscarinic acetylcholine receptor M1 (Homo sapiens, UniProt P11229); format: functional
T3 sequence (P11229 whole entry): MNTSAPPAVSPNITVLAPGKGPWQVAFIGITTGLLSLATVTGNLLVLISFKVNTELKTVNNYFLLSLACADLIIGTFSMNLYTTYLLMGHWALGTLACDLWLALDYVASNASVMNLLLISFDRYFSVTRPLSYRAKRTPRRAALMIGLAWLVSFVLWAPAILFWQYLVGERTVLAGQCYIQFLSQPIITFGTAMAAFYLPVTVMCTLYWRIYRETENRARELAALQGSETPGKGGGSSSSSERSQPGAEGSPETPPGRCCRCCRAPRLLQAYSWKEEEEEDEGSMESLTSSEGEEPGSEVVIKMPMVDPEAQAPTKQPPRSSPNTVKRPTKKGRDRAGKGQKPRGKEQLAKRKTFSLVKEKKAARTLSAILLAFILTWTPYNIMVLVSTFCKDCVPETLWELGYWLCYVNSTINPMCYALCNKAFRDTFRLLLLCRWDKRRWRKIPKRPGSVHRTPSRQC

[4] = target: T4, 5-hydroxytryptamine receptor 2B (Homo sapiens, UniProt P41595)
T4 sequence (P41595 whole entry): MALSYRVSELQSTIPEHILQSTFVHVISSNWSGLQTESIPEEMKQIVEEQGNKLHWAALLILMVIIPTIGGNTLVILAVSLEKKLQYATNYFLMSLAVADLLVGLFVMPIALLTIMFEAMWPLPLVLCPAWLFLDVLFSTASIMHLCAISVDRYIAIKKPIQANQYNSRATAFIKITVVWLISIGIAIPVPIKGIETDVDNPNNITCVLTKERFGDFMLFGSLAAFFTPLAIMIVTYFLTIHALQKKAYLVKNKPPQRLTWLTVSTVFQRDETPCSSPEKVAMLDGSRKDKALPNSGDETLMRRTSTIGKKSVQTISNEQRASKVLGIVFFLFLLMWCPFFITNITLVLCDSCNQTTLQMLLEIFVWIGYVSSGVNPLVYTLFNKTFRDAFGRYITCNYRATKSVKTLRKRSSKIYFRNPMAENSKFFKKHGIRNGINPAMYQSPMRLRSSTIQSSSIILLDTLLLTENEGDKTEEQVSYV

[5] = target: T5, Neuropeptide Y receptor type 2 (Homo sapiens, UniProt P49146)
T5 sequence (P49146 whole entry): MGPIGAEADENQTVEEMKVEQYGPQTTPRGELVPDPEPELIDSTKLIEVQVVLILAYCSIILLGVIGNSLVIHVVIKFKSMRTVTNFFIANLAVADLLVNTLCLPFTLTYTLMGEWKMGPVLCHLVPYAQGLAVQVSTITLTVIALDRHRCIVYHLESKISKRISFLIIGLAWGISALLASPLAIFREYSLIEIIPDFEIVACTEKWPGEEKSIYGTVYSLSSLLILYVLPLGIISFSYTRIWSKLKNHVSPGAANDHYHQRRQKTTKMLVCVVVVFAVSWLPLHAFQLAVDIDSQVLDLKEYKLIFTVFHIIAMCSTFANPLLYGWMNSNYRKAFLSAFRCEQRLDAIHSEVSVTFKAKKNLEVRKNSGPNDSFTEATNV

[6] = target: Muscarinic acetylcholine receptor M3 (Homo sapiens, UniProt P20309)
Chain of Muscarinic acetylcholine receptor M3 (P20309 whole entry): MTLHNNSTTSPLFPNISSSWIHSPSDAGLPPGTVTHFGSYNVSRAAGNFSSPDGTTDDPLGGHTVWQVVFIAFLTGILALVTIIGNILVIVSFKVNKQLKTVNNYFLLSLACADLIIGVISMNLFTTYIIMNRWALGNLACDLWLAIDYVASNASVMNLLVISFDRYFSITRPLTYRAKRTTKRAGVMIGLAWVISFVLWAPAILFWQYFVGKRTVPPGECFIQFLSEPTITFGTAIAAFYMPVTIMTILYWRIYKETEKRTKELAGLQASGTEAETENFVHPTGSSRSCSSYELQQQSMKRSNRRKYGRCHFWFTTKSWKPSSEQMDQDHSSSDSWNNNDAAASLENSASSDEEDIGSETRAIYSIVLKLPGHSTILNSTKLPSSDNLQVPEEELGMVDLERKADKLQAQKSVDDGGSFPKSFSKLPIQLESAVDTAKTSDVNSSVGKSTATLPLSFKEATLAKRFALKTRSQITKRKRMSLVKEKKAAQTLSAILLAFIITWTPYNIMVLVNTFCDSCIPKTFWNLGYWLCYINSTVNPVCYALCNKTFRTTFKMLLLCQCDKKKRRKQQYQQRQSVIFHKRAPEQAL

[7] = target: T6, 5-hydroxytryptamine receptor 1A (Homo sapiens, UniProt P08908)
T6 sequence (P08908 whole entry): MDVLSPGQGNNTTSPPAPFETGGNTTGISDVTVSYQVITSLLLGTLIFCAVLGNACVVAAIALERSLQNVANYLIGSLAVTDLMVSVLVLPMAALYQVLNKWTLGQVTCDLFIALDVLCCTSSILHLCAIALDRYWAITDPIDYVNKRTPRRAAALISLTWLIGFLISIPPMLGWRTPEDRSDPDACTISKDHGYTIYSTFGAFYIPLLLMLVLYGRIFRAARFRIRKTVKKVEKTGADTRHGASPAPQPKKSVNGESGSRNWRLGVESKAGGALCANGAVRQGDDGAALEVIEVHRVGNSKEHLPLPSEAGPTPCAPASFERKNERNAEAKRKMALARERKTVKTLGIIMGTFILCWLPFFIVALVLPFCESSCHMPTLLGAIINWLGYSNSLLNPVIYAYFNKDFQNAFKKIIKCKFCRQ

[8] = target: Histamine H3 receptor (Homo sapiens, UniProt Q9Y5N1)
Chain of Histamine H3 receptor (Q9Y5N1 whole entry): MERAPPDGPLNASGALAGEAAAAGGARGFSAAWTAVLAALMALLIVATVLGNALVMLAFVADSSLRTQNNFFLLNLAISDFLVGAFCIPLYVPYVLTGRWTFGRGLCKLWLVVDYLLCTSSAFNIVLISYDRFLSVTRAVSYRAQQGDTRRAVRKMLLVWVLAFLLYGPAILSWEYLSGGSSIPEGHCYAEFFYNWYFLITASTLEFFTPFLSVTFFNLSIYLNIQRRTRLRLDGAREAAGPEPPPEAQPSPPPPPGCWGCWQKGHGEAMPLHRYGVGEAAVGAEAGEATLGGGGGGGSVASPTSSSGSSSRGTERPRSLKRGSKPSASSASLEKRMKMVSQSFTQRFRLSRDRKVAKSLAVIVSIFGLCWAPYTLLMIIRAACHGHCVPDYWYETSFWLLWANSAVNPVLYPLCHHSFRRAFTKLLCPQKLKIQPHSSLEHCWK

[9] = target: T4, 5-hydroxytryptamine receptor 2B; format: functional, cell-based
[10] = target: Mu-type opioid receptor (Homo sapiens, UniProt P35372)
Chain of Mu-type opioid receptor (P35372 whole entry): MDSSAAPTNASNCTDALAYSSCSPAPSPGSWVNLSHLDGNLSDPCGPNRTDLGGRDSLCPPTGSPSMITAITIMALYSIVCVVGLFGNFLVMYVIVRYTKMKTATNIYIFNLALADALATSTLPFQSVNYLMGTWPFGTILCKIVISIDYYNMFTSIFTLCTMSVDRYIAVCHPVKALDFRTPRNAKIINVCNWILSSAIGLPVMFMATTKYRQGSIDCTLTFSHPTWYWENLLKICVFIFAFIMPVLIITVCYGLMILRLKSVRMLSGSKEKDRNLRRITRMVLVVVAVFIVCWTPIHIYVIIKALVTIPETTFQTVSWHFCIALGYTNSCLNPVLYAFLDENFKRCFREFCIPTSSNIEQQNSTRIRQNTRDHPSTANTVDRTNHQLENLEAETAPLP

[11] = target: D(1A) dopamine receptor (Homo sapiens, UniProt P21728)
Chain of D(1A) dopamine receptor (P21728 whole entry): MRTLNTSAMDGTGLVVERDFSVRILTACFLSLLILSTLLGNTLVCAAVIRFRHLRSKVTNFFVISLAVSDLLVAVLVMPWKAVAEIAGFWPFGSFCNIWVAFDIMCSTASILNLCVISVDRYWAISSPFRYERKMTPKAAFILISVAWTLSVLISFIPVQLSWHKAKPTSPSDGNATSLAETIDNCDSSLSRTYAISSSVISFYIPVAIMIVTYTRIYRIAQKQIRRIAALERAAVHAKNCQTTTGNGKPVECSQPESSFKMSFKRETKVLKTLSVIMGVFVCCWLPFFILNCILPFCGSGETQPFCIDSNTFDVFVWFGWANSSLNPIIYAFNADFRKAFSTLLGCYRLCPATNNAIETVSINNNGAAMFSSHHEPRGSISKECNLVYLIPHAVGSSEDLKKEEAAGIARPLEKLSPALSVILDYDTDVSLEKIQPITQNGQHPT
Note: assay procedure not described here.

| SMILES | AC50 [1] [µM] | AC50 [2] [µM] | AC50 [3] [µM] | AC50 [4] [µM] | AC50 [5] [µM] | AC50 [6] [µM] | AC50 [7] [µM] | AC50 [8] [µM] | AC50 [9] [µM] | AC50 [10] [µM] | AC50 [11] [nM] |
| --- | --- | --- | --- | --- | --- | --- | --- | --- | --- | --- | --- |
| [H]/N=C(/N)N/C(=N/[H])NCCc1ccccc1 [PHENFORMIN] | > 30 | > 30 | > 30 | 8.9 | > 30 | > 30 | > 10 | > 10 | > 30 | – | – |
| Oc1ccc2c(c1)CC[C@H](c1ccccc1)[C@@H]2c1ccc(OCCN2CCCC2)cc1 [LASOFOXIFENE] | > 30 | – | 11 | 0.272 | – | 11 | – | 0.99 | – | – | – |
| Cc1cc(C(C)(C)C)cc(C)c1CC1=NCCN1 [XYLOMETAZOLINE] | > 30 | – | 14.4 | 1.56 | – | 10 | – | 6.9 | 1.16 | – | – |
| COc1cc(N)c(Cl)cc1C(=O)NC1CCN(Cc2ccccc2)CC1 [CLEBOPRIDE] | > 30 | – | > 30 | 0.0079 | – | > 30 | – | > 30 | > 30 | – | – |
| CC(N)C(O)c1ccccc1 (stereo not given) [PHENYLPROPANOLAMINE] | > 30 | > 30 | > 10 | > 10 | > 30 | – | > 10 | > 10 | > 10 | – | – |
| OC1(c2ccc(Cl)cc2)c2ccccc2C2=NCCN21 (stereo not given) [MAZINDOL] | > 30 | 33.1 | > 30 | > 10 | > 30 | > 30 | > 10 | > 30 | > 30 | – | – |
| O=C(O)c1cn(C2CC2)c2cc(N3CCNCC3)c(F)cc2c1=O [CIPROFLOXACIN] | > 30 | > 30 | – | – | > 30 | – | – | – | – | – | – |
| CC(C)NCC(O)c1ccc(O)c(O)c1 (stereo not given) [ISOPROTERENOL] | > 30 | > 30 | – | > 10 | > 30 | – | > 10 | > 10 | > 10 | – | – |
| CC(CCc1ccc(O)cc1)NCCc1ccc(O)c(O)c1 (stereo not given) [DOBUTAMINE] | > 30 | > 30 | – | > 10 | > 30 | – | > 10 | > 30 | > 30 | – | – |
| CCCCC(=O)O[C@]1(C(=O)CO)[C@@H](C)C[C@H]2[C@@H]3CCC4=CC(=O)C=C[C@]4(C)[C@@]3(F)[C@@H](O)C[C@@]21C [BETAMETHASONE VALERATE] | – | – | > 10 | – | – | > 30 | > 10 | > 10 | > 10 | – | – |
| CC(=O)N[C@@H](CS)C(=O)O [ACETYLCYSTEINE] | > 30 | – | > 30 | – | – | > 30 | – | > 30 | > 30 | – | – |
| C/N=C(\NC)NCc1ccccc1 [BETHANIDINE] | > 30 | – | > 30 | – | – | > 30 | – | > 30 | > 30 | – | – |
| CN(C)CCCNc1c2ccccc2nc2cccc([N+](=O)[O-])c12 [NITRACRINE] | > 30 | – | 11 | 0.2 | – | 19 | – | > 10 | > 30 | – | – |
| CNC1=Nc2ccc(Cl)cc2C(c2ccccc2)=[N+]([O-])C1 [CHLORDIAZEPOXIDE] | – | – | – | – | – | – | > 10 | > 10 | > 10 | – | – |
| CCCN[C@H]1CCc2nc(N)sc2C1 [PRAMIPEXOLE] | – | – | > 10 | – | – | > 30 | 10.5 | > 10 | > 10 | – | – |
| CN1CCC(=C2c3ccccc3CCc3cccnc32)CC1 [AZATADINE] | – | – | 0.11 | – | – | > 30 | 5.69 | > 10 | > 10 | – | – |
| CCOC(=O)C1=C(C)NC(C)=C(C(=O)OC)C1c1cccc([N+](=O)[O-])c1 (stereo not given) [NITRENDIPINE] | > 30 | > 30 | – | > 10 | > 30 | – | > 10 | > 10 | > 10 | – | – |
| CC12CC3CC(C)(C1)CC(N)(C3)C2 [MEMANTINE] | > 30 | > 30 | > 10 | – | > 30 | > 30 | > 10 | > 10 | > 10 | – | – |
| CCC(C)C(CC)C(N)=O (stereo not given) [VALNOCTAMIDE] | > 30 | – | > 30 | – | – | > 30 | – | > 30 | > 30 | – | – |
| C[C@]12CCC(=O)C(O)=C1CC[C@@H]1[C@@H]2CC[C@]2(C)C(=O)CC[C@@H]12 [FORMESTANE] | > 30 | – | > 30 | – | – | > 30 | – | > 30 | > 30 | – | – |
| CC(C)COCC(CN(Cc1ccccc1)c1ccccc1)N1CCCC1 (stereo not given) [BEPRIDIL] | > 30 | > 30 | 23 | – | > 30 | 17 | – | > 30 | > 30 | – | – |
| Cc1cnc(C(=O)NCCc2ccc(S(=O)(=O)NC(=O)NC3CCCCC3)cc2)cn1 [GLIPIZIDE] | > 30 | > 30 | – | – | > 30 | – | > 10 | > 10 | – | – | – |
| CCCC(CCC)C(N)=O [VALPROMIDE] | – | – | > 10 | – | – | > 30 | > 10 | > 10 | > 10 | – | – |
| CCC[C@H](NC(=O)[C@@H]1[C@H]2CCC[C@H]2CN1C(=O)[C@@H](NC(=O)[C@@H](NC(=O)c1cnccn1)C1CCCCC1)C(C)(C)C)C(=O)C(=O)NC1CC1 | – | – | > 10 | > 10 | – | > 30 | > 10 | > 10 | – | – | – |
| CN1CCN(C2=Nc3ccccc3Oc3ccc(Cl)cc32)CC1 [LOXAPINE] | > 30 | > 30 | 0.794 | – | > 30 | – | 33.1 | > 10 | – | 8.61 | 24.5 |
| CCOC(=O)C1=C[C@]2(CC)CCCN3CCc4c(n1c1ccccc41)[C@@H]32 [VINPOCETINE] | > 30 | – | > 30 | > 30 | – | > 30 | – | 18 | 13 | – | – |

Reference: ChEMBL document CHEMBL5291721, “A preclinical secondary pharmacology resource illuminates target-adverse drug reaction associations of marketed drugs” (Nat Commun, 2023)
